Results published in ChEMBL document CHEMBL6074716, “Discovery of SET domain-binding primary alkylamine-tethered degraders for the simultaneous degradation of NSD2-long and RE-IIBP isoforms” (Eur J Med Chem, 2025).
pIC50, pKd: −log10 of the molar value. Converted amounts (≈) assume the structure as drawn. The source made the active and inactive calls. The rule behind the calls is not given here.

How the values were obtained:
KMS-11 [1] = assay: Induction of primary alkylamine-tethering degradation of NSD2 in human KMS-11 cells at 1 to 4 uM by Western blot analysis; format: cell-based; details: dose 1-4 µM
[2] = biological target: T1, Histone-lysine N-methyltransferase NSD2 (Homo sapiens, UniProt O96028); assay: Binding affinity to CM5 chip-immobilizes NSD2 (unknown origin) assessed as dissociation constant by SPR analysis
T1 sequence (O96028 whole entry): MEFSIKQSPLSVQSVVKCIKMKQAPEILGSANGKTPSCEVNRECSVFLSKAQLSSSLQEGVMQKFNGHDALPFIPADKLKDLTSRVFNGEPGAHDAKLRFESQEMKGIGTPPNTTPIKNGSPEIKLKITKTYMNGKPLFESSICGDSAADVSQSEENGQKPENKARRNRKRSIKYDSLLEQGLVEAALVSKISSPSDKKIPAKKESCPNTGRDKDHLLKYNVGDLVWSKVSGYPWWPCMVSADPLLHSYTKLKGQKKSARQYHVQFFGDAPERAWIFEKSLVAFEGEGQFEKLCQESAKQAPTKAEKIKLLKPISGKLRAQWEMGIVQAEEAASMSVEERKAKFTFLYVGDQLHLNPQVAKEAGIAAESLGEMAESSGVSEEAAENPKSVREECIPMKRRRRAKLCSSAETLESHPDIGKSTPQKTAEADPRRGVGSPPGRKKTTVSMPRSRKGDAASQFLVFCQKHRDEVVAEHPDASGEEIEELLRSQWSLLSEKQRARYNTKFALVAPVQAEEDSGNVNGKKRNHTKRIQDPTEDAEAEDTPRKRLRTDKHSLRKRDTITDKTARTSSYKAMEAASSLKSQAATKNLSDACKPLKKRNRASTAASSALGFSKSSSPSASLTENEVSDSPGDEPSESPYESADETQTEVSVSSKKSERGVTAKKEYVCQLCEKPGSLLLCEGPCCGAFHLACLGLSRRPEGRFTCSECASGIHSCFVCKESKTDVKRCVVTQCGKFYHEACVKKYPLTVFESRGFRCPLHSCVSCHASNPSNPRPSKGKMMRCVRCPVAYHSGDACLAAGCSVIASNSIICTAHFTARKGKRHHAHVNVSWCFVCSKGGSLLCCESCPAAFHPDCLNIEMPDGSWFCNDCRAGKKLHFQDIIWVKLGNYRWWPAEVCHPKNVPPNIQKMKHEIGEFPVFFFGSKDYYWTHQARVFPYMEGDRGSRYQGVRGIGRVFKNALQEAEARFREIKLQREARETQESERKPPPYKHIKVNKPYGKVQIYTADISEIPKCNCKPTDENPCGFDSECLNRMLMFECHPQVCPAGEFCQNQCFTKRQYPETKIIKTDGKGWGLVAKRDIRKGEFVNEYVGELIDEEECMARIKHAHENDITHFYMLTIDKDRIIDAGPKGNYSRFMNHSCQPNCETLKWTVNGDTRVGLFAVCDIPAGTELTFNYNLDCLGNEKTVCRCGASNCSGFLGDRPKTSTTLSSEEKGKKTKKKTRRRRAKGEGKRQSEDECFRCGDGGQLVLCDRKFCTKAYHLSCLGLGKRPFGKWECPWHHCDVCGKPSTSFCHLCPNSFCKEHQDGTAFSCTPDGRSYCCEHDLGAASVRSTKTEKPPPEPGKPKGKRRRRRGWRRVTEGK

KMS-11 [3] = assay: Induction of primary alkylamine-tethering degradation of NSD2 in human KMS-11 cells at 0.1 to 2 uM by Western blot analysis; format: cell-based; details: dose 0.1-2 µM
[4] = (§1) Induction of primary alkylamine-tethering degradation of NSD2 Long isoform in human KMS-11 cells by Western blot analysis; format: cell-based
KMS-11 [5] = assay: as §1; format: cell-based; details: dose <= 5.0 µM
[6] = biological target: T2, Histone-lysine N-methyltransferase NSD2 (Homo sapiens) (UniProt O96028); assay: (§2) Induction of primary alkylamine-tethering degradation of NSD2 RE-IIBP isoform in human KMS-11 cells by Western blot analysis; format: cell-based; details: dose <= 5.0 µM
T2 sequence (whole entry): T1 sequence (O96028 whole entry)

[7] = biological target: T1, Histone-lysine N-methyltransferase NSD2; assay: as §2; format: cell-based
KMS-11 [8] = assay: Induction of primary alkylamine-tethering degradation of NSD2 Long isoform in human KMS-11 cells upto 5 uM by Western blot analysis; format: cell-based
[9] = biological target: T2, Histone-lysine N-methyltransferase NSD2 (Homo sapiens); assay: Induction of primary alkylamine-tethering degradation of NSD2 RE-IIBP isoform in human KMS-11 cells upto 5 uM by Western blot analysis; format: cell-based
KMS-11 [10] = assay: Induction of primary alkylamine-tethering degradation of NSD2 in human KMS-11 cells at 5 uM by Western blot analysis; format: cell-based; details: time 6-48 hrs
KMS-11 [11] = assay: Induction of primary alkylamine-tethering degradation of NSD2 Long isoform in human KMS-11 cells at 0.1 to 2 uM by Western blot analysis; format: cell-based; details: dose 0.1-2 µM
[12] = biological target: T2, Histone-lysine N-methyltransferase NSD2 (Homo sapiens); assay: Induction of primary alkylamine-tethering degradation of NSD2 RE-IIBP isoform in human KMS-11 cells at 0.1 to 2 uM by Western blot analysis; format: cell-based; details: dose 0.1-2 µM
KMS-11 [13] = assay: Induction of primary alkylamine-tethering degradation of NSD1 in human KMS-11 cells at 0.1 to 2 uM by Western blot analysis; format: cell-based; details: dose 0.1-2 µM
KMS-11 [14] = assay: Induction of primary alkylamine-tethering degradation of NSD3 in human KMS-11 cells at 0.1 to 2 uM by Western blot analysis; format: cell-based; details: dose 0.1-2 µM
KMS-11 [15] = assay: Induction of primary alkylamine-tethering degradation of NSD2 in human KMS-11 cells assessed as decrease in H3K36 methylation upto 2.5 uM by Western blot analysis; format: cell-based
22Rv1 = assay: Induction of primary alkylamine-tethering degradation of NSD2 in human 22Rv1 cells assessed as decrease in H3K36 methylation upto 8 uM by Western blot analysis; format: cell-based
KMS-11 [16] = assay: Antiproliferative activity against human KMS-11 cells assessed as inhibition of cell viability incubated for 8 to 12 days by Cell Titer Glo assay; format: functional, cell-based
[17] = Antiproliferative activity against HEK293T cells assessed as inhibition of cell viability incubated for 8 to 12 days by Cell Titer Glo assay; format: toxicity, cell-based, HEK-293T; details: human
KMS-11 [18] = assay: Induction of primary alkylamine-tethering degradation of NSD2 in human KMS-11 cells assessed as decrease in JAM2 mRNA level at 1.25 to 2.5 uM incubated for 2 days by qPCR analysis; format: cell-based; details: dose 1.25-2.5 µM, time 2.0 day
KMS-11 [19] = assay: Induction of primary alkylamine-tethering degradation of NSD2 in human KMS-11 cells assessed as decrease in MET mRNA level at 1.25 to 2.5 uM incubated for 2 days by qPCR analysis; format: cell-based; details: dose 1.25-2.5 µM, time 2.0 day
KMS-11 [20] = assay: Induction of primary alkylamine-tethering degradation of NSD2 in human KMS-11 cells assessed as decrease in PAK1 mRNA level at 1.25 to 2.5 uM incubated for 2 days by qPCR analysis; format: cell-based; details: dose 1.25-2.5 µM, time 2.0 day
KMS-11 [21] = assay: Induction of primary alkylamine-tethering degradation of NSD2 in human KMS-11 cells assessed as decrease in RRAS2 mRNA level at 1.25 to 2.5 uM incubated for 2 days by qPCR analysis; format: cell-based; details: dose 1.25-2.5 µM, time 2.0 day
KMS-11 [22] = assay: Induction of primary alkylamine-tethering degradation of NSD2 in human KMS-11 cells assessed as decrease in BACE2 mRNA level at 1.25 to 2.5 uM incubated for 2 days by qPCR analysis; format: cell-based; details: dose 1.25-2.5 µM, time 2.0 day
KMS-11 [23] = assay: Induction of primary alkylamine-tethering degradation of NSD2 in human KMS-11 cells assessed as decrease in CA2 mRNA level at 1.25 to 2.5 uM incubated for 2 days by qPCR analysis; format: cell-based; details: dose 1.25-2.5 µM, time 2.0 day
KMS-11 [24] = assay: Induction of primary alkylamine-tethering degradation of NSD2 in human KMS-11 cells assessed as decrease in IGF2BP2 mRNA level at 1.25 to 2.5 uM incubated for 2 days by qPCR analysis; format: cell-based; details: dose 1.25-2.5 µM, time 2.0 day
KMS-11 [25] = assay: Induction of primary alkylamine-tethering degradation of NSD2 in human KMS-11 cells assessed as decrease in CR2 mRNA level at 1.25 to 2.5 uM incubated for 2 days by qPCR analysis; format: cell-based; details: dose 1.25-2.5 µM, time 2.0 day
[26] = Solubility of compound in water measured after 4 hrs by HPLC analysis; format: physicochemical
[27] = Metabolic stability in human liver microsomes assessed as half life at 1 uM preincubated for 5 mins followed by NADPH addition measured for 5 to 60 mins by LC-MS/MS analysis; format: ADME, Microsome; details: time 10-65 min
[28] = Metabolic stability in human liver microsomes assessed as hepatic clearance at 1 uM preincubated for 5 mins followed by NADPH addition measured for 5 to 60 mins by LC-MS/MS analysis; format: ADME, Microsome; details: time 10-65 min
[29] = Metabolic stability in human liver microsomes assessed as hepatic extraction ratio at 1 uM preincubated for 5 mins followed by NADPH addition measured for 5 to 60 mins by LC-MS/MS analysis; format: ADME, Microsome; details: time 10-65 min, read-out: ERH
[30] = biological target: von Hippel-Lindau disease tumor suppressor/Histone-lysine N-methyltransferase NSD2 (Homo sapiens) (UniProt O96028+P40337); assay: PROTAC activity at VHL/NSD2 in human KMS-11 cells assessed as induction of protein degradation upto 50 uM by Western blot analysis; format: cell-based
Chain of von Hippel-Lindau disease tumor suppressor/Histone-lysine N-methyltransferase NSD2 (Homo sapiens) (P40337 whole entry, looked up, one chain of several): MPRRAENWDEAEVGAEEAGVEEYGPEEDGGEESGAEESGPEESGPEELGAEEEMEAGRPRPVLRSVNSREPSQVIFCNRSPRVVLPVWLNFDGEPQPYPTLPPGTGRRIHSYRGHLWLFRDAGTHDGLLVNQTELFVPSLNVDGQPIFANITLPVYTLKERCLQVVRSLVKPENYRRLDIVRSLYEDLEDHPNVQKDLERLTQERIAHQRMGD

## NCCCCCCCCCCCNC(=O)COc1cc(-c2cc(Cn3cnc4c(N)ncnc43)c(N3CCCC(N)(CC(F)F)C3)cn2)ccc1F (racemic)
KMS-11 [1]
  Activity: Active

## NCCCCCCCCCCCNC(=O)COc1cc(-c2cc(Cn3cnc4c(N)ncnc43)c(N3CCC[C@](N)(CC(F)F)C3)cn2)ccc1F
[2]
  pKd: 5.06
KMS-11 [3]
  Activity: Active
[4]
  DC50: 1.48 µM
KMS-11 [5]
  Activity: Dose-dependent-effect
[6]
  Activity: Dose-dependent-effect
[7]
  DC50: 0.8 µM
KMS-11 [8]
  Activity: 80%
[9]
  Activity: 80%
KMS-11 [10]
  Activity: Time-dependent-effect
KMS-11 [11]
  Activity: Active
[12]
  Activity: Active
KMS-11 [13]
  Activity: Not active; Exhibited Moderate Degradation
KMS-11 [14]
  Activity: inactive
KMS-11 [15]
  Activity: Active
22Rv1
  Activity: Active
KMS-11 [16]
  pIC50: 6.05
[17]
  pIC50: < 4.00
KMS-11 [18]
  Activity: Active
KMS-11 [19]
  Activity: Active
KMS-11 [20]
  Activity: Active
KMS-11 [21]
  Activity: Active
KMS-11 [22]
  Activity: Active
KMS-11 [23]
  Activity: Active
KMS-11 [24]
  Activity: Active
KMS-11 [25]
  Activity: Active
[26]
  solubility at 4 h: 470 µg/mL (≈ 648 µM)
[27]
  half-life at 1 µM: 5.37 min
[28]
  CLhep predicted at 1 µM: 20.1 mL/min/kg
[29]
  hepatic extraction ratio at 1 µM: 0.973

## NCCCCCCCCCNC(=O)COc1cc(-c2cc(Cn3cnc4c(N)ncnc43)c(N3CCC[C@](N)(CC(F)F)C3)cn2)ccc1F
KMS-11 [1]
  Activity: inactive

## Nc1ncnc2c1ncn2Cc1cc(-c2ccc(F)c(OCC(=O)NCCCCCCCCCCCNC(=O)c3ccccc3)c2)ncc1N1CCC[C@](N)(CC(F)F)C1
KMS-11 [1]
  Activity: Not active; Exhibited Minimal Activity

## NCCCCCCCCCCCNC(=O)COc1cc(-c2cc(Cn3cnc4c(N)ncnc43)c(N3CCC[C@@](N)(CC(F)F)C3)cn2)ccc1F
[2]
  pKd: < 4.00
KMS-11 [3]
  Activity: inactive

## NCCCCCCCCCCCCNC(=O)COc1cc(-c2cc(Cn3cnc4c(N)ncnc43)c(N3CCC[C@](N)(CC(F)F)C3)cn2)ccc1F
KMS-11 [1]
  Activity: inactive

## NCCCNC(=O)COc1cc(-c2cc(Cn3cnc4c(N)ncnc43)c(N3CCC[C@](N)(CC(F)F)C3)cn2)ccc1F
KMS-11 [1]
  Activity: inactive

## Cc1ncsc1-c1ccc([C@H](C)NC(=O)[C@@H]2C[C@@H](O)CN2C(=O)[C@@H](NC(=O)CCCCCCCCCCCNC(=O)COc2cc(-c3cc(Cn4cnc5c(N)ncnc54)c(N4CCCC(N)(CC(F)F)C4)cn3)ccc2F)C(C)(C)C)cc1 (some centres not stated)
[30]
  Activity: Active

## NCCCCCNC(=O)COc1cc(-c2cc(Cn3cnc4c(N)ncnc43)c(N3CCC[C@](N)(CC(F)F)C3)cn2)ccc1F
KMS-11 [1]
  Activity: inactive

## NCCCCCCNC(=O)COc1cc(-c2cc(Cn3cnc4c(N)ncnc43)c(N3CCC[C@](N)(CC(F)F)C3)cn2)ccc1F
KMS-11 [1]
  Activity: inactive

## Nc1ncnc2c1ncn2Cc1cc(-c2ccc(F)c(F)c2)ncc1N1CCC[C@](N)(CC(F)F)C1
KMS-11 [16]
  pIC50: 5.33
[17]
  pIC50: 5.07
[26]
  solubility at 4 h: 490 µg/mL (≈ 979 µM)
[27]
  half-life at 1 µM: 22.3 min
[28]
  CLhep predicted at 1 µM: 18.6 mL/min/kg
[29]
  hepatic extraction ratio at 1 µM: 0.898

## NCCCCCCCNC(=O)COc1cc(-c2cc(Cn3cnc4c(N)ncnc43)c(N3CCC[C@](N)(CC(F)F)C3)cn2)ccc1F
KMS-11 [1]
  Activity: inactive

## CNCCCCCCCCCCCNC(=O)COc1cc(-c2cc(Cn3cnc4c(N)ncnc43)c(N3CCC[C@](N)(CC(F)F)C3)cn2)ccc1F
KMS-11 [1]
  Activity: Not active; Exhibited Minimal Activity
